Laboratory results as given in BindingDB's records for doi:10.1016/j.ejmech.2018.11.076 (Shaoxing University, 2019).

Columns and labels:
[1] = target: T1, Cyclin-C (Homo sapiens, UniProt P24863); assay: Displacement of Kinase tracer 236 from recombinant full-length human N-terminal GST-fused CDK8 (1 to 464 residues)/cyclin C (1 to 283 residues) expressed in baculovirus expression system after 60 mins by TR-FRET assay
T1 sequence (P24863 whole entry): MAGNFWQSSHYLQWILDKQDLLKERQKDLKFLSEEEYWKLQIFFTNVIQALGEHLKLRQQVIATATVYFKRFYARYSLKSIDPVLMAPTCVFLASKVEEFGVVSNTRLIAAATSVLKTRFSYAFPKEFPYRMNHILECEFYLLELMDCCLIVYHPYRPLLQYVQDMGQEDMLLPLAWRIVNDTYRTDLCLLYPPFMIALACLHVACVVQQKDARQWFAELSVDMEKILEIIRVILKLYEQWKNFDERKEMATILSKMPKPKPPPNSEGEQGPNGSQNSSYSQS

[2] = target: T1, Cyclin-C; assay: Inhibition of recombinant full-length human His-tagged CDK8/cyclinC expressed in baculovirus expression system by Lantha screen assay

| Structure (SMILES) | IC50 [1] | IC50 [2] |
| --- | --- | --- |
| Cc1ncccc1Oc1sc(C(N)=O)c2c1-c1c(cnn1C)CC2 | 0.0016 µM |  |
| CC1CCc2nc(N)c(C#N)c(-c3cccnc3)c2C1 (configuration not stated) [2-azanyl-6-methyl-4-pyridin-3-yl-5,6,7,8-tetrahydroquinoline-3-carbonitrile] |  | 0.5 µM |
